In patent US20250230154A1, “COMPOUND HAVING SHP2 PROTEIN DEGRADING ACTIVITY, AND MEDICAL USES THEREOF” (UBIX THERAPEUTICS, INC., priority 2021, published 2025):

Biological target: T1, SHP2 protein (Homo sapiens, UniProt Q06124)
T1 sequence (Q06124 1-593): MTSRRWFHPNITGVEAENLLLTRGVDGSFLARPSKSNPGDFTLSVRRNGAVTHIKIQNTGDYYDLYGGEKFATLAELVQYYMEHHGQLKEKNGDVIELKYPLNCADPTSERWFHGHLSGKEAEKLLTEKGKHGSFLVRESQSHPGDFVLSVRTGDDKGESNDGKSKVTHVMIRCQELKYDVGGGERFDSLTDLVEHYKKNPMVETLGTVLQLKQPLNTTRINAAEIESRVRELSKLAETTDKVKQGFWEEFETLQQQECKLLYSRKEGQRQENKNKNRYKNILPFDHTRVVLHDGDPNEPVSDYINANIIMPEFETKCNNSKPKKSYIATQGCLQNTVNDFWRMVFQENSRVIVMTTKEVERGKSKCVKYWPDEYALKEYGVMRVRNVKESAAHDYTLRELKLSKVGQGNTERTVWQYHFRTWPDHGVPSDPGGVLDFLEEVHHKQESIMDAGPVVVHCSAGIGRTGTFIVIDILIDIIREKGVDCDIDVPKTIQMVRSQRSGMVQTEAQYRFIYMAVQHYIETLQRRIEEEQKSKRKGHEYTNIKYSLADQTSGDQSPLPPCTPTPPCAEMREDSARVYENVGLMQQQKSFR
Assay: Measurement of SHP2 protein degradation in KYSE-520 cells (western blotting)
Assay type: cell-based
Parameters: endogenous in cells
Conditions: 24 hours
Experimental: Experimental Example 1: Measurement of SHP2 Protein Degradation in KYSE-520 Cells
KYSE-520 cells were treated with the synthesized Example compound, and the amount of SHP2 protein present in the cells was measured using western blotting detection. The protocol of the experiment conducted using KYSE-520 cells was as follows:
[Culture] KYSE-520 cells resuspended in RPMI1640 MEDIUM (Hyclone, SH30027.01) containing 5% FBS (Hyclone, SV30207.02) and 1% Penicillin-streptomycin (Welgene, LS 202-02) were seeded at a density of 2.5×10^5/well in a 6-well plate in an amount of 2 ml each and incubated for 2 days.
[Compound treatment] […] After 24 hours, cells were harvested. For the negative control group, DMSO diluted 1/10 to the media (3 mL DMSO+27 mL media) was added.
[Cell Lysis and Protein Quantification] Lysis buffer was prepared as follows: […] of RIPA buffer (Biosesang, RC2038-050-00)+0.5 mM PMSF (SIGMA, P7626)+1× Protease/Phosphatase Inhibitor (Cell signaling, 5872S) per well was added and placed on ice for 30 minutes (vortexing at 0 and 30 minutes, respectively). After sonication process (10 seconds pulse, 30 seconds rest, 5 cycles, 70% amplification), centrifugation (15000 g, 15 min, 4° C.) was performed, and then only the supernatant was taken and transferred to a new microtube. The sample was diluted ¼ with RIPA buffer in a 96-well plate, and mixed with A:B=50:1 of the BCA Protein Assay Kit (iNtRON, 21071). […] each of the mixture was left at 37° C. for 30 minutes, and cooled for 10 minutes. Then, absorbance was measured at 562 nm with the SYNERGY H1 microplate reader from BioTek. After making a sample by quantifying the protein with the measured value, boiling was performed at 70° C. for 10 minutes. At this time, the sample buffer used was a mixture of NuPAGE or Bolt 4× sample buffer (Invitrogen) and each 10× sample reducing agent according to the gel to be used, and RIPA buffer was used for protein dilution.
[Western blotting detection method] The same amount of sample was loaded on NuPAGE or Bolt Bis-tris 4-12% gradient gel and run (200 V, 35 minutes). It was transferred to 0.2 mm NC membrane with Trans-blot Turbo (BIO-RAD) (1.3 A constant, 25 V limit, 15 minutes). Blocking was performed at room temperature for 1 hour with Skim milk or Intercept Blocking Buffer (LI-COR, 927-60001):0.1% TBST=1:1. Anti SHPTP2 Mouse (1:500 in 5% Skim milk/TBST, size: 70 kDa, Santacruz sc-7384) was incubated overnight at 4° C., and Anti GAPDH Rabbit (1:2,000 in 5% BSA/0.2% TBST, size: 37 kDa, CST #2118) was incubated at room temperature for 1 hour 30 minutes or 3 hours. It was washed 3 times for 5 minutes each with 0.2% TBST washing buffer. Secondary antibody Anti-Rabbit IgG (1:5,000 in 5% Skim milk/0.2% TBST, CST), and IRDye® 680RD Goat anti-Rabbit IgG Secondary Antibody (1:10,000 in 5% BSA/0.2% TBST, LI-COR 926-68071) were incubated for 45 minutes on a rocker at room temperature. It was washed 5 times for 5 minutes each with 0.2% TBST washing buffer and detected with LI-COR's Odyssey. At this time, SHPTP2 was detected using SuperSignal West Pico PLUS Chemiluminescent Substrate, and house-keeping genes were also detected.
In the results of Table 4 below, Compounds 1-7, 13-19, and 21-26 are results in KYSE-520 cells, and the others are results in MV-4-11 cells.

| Structure (SMILES) | SHP2 degradation (%) 10 nM | SHP2 degradation (%) 100 nM | SHP2 degradation (%) 1000 nM |
| --- | --- | --- | --- |
| Cc1ncsc1-c1ccc(CNC(=O)[C@@H]2C[C@@H](O)CN2C(=O)[C@@H](NC(=O)C2(F)CC2)C(C)(C)C)c(OCCCC(=O)N2CCC(C(=O)Nc3cccc(Sc4cnc(N5CCC(C)(CN)CC5)cn4)c3Cl)CC2)c1 [Example 21, N-(3-((5-(4-(aminomethyl)-4-methylpiperidin-1-yl)pyrazin-2-yl)thio)-2-chlorophenyl)-1-(4-(2-(((2S,4R)-1-((S)-2-(1-fluorocyclopropane-1-carboxamido)-3,3-dimethylbutanoyl)-4-hydroxypyrrolidine-2-carboxamido)methyl)-5-(4-methylthiazol-5-yl)phenoxy)butanoyl)piperidine-4-carboxamide] | 11.7% | 51.7% | 66.6% |
| Cc1ncsc1-c1ccc(CNC(=O)[C@@H]2C[C@@H](O)CN2C(=O)[C@@H](NC(=O)C2(F)CC2)C(C)(C)C)c(OCCCC(=O)N2CCC(CC(=O)Nc3cccc(Sc4cnc(N5CCC(C)(CN)CC5)cn4)c3Cl)CC2)c1 [Example 23, (2S,4R)—N-(2-(4-(4-(2-((3-((5-(4-(aminomethyl)-4-methylpiperidin-1-yl)pyrazin-2-yl)thio)-2-chlorophenyl)amino)-2-oxoethyl)piperidin-1-yl)-4-oxobutoxy)-4-(4-methylthiazol-5-yl)benzyl)-1-((S)-2-(1-fluorocyclopropane-1-carboxamido)-3,3-dimethylbutanoyl)-4-hydroxypyrrolidine-2-carboxamide] | 8.4% | 44.3% | 64.2% |
| Cc1ncsc1-c1ccc(CNC(=O)[C@@H]2C[C@@H](O)CN2C(=O)[C@@H](NC(=O)C2(F)CC2)C(C)(C)C)c(OCCCC(=O)N2CCC(CCC(=O)Nc3cccc(Sc4cnc(N5CCC(C)(CN)CC5)cn4)c3Cl)CC2)c1 [Example 24, (2S,4R)—N-(2-(4-(4-(3-((3-((5-(4-(aminomethyl)-4-methylpiperidin-1-yl)pyrazin-2-yl)thio)-2-chlorophenyl)amino)-3-oxopropyl)piperidin-1-yl)-4-oxobutoxy)-4-(4-methylthiazol-5-yl)benzyl)-1-((S)-2-(1-fluorocyclopropane-1-carboxamido)-3,3-dimethylbutanoyl)-4-hydroxypyrrolidine-2-carboxamide] | 15.1% | 52.1% | 74.7% |
| Cc1ncsc1-c1ccc(CNC(=O)[C@@H]2C[C@@H](O)CN2C(=O)[C@@H](NC(=O)C2(F)CC2)C(C)(C)C)c(OCCCC(=O)N2CCC(CCCC(=O)Nc3cccc(Sc4cnc(N5CCC(C)(CN)CC5)cn4)c3Cl)CC2)c1 [Example 25, (2S,4R)—N-(2-(4-(4-(4-((3-((5-(4-(aminomethyl)-4-methylpiperidin-1-yl)pyrazin-2-yl)thio)-2-chlorophenyl)amino)-4-oxobutyl)piperidin-1-yl)-4-oxobutoxy)-4-(4-methylthiazol-5-yl)benzyl)-1-((S)-2-(1-fluorocyclopropane-1-carboxamido)-3,3-dimethylbutanoyl)-4-hydroxypyrrolidine-2-carboxamide] | – | 61.8% | 94.7% |
| Cc1ncsc1-c1ccc(CNC(=O)[C@@H]2C[C@@H](O)CN2C(=O)[C@@H](NC(=O)C2(F)CC2)C(C)(C)C)c(OCCCCCC(=O)N2CCC(CCCC(=O)Nc3cccc(Sc4cnc(N5CCC(C)(CN)CC5)cn4)c3Cl)CC2)c1 [Example 26, (2S,4R)—N-(2-((6-(4-(4-((3-((5-(4-(aminomethyl)-4-methylpiperidin-1-yl)pyrazin-2-yl)thio)-2-chlorophenyl)amino)-4-oxobutyl)piperidin-1-yl)-6-oxohexyl)oxy)-4-(4-methylthiazol-5-yl)benzyl)-1-((S)-2-(1-fluorocyclopropane-1-carboxamido)-3,3-dimethylbutanoyl)-4-hydroxypyrrolidine-2-carboxamide] | 40.6% | 83.2% | 95.0% |
